Experiment [1] has as its target Brd4 bromodomain 1 (BRD4(1)) (Homo sapiens, UniProt O60885). Description: Inhibition of tetra-acetylated histone H4 binding to Brd4 bromodomain 1, measured by FRET (HTRF). Further details: made in house; host or cells: E. coli BL21(DE3). The note with it: 2 h at room temperature. The procedure, abridged: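 N-terminally His-tagged bromodomain (200 nM), expressed in E. coli and purified by Ni affinity and size exclusion, was incubated with biotinylated tetra-acetylated H4 peptide (25-50 nM), Eu-cryptate streptavidin and XL665 anti-His in HEPES pH 7.4 buffer with 0.2% DMSO. Reactions ran 2 h at room temperature. IC50 came from the 665/620 nm fluorescence decrease.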
(In general: In TR-FRET formats the signal depends on donor and acceptor labels being close together.)

The subject of a further experiment is Human AML MV-4-11 cells. The experiment is described as follows: Inhibition of cell proliferation in MV4-11 cells (CellTiter Aqueous One). The experiment is classed as cell-based. The note with it: MV4-11, 72 h. In short, it runs like this:
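MV4-11 cells, 5×10^4 per well in IMDM with 10% FBS, were exposed to increasing compound concentrations or 0.1% DMSO for 72 h at 37 °C in triplicate. Viability was read by MTS (CellTiter Aqueous One) absorbance at 490 nm after 3-4 h. IC50 was derived from background-corrected signal relative to DMSO.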

The next experiment relates to hIL-6 mRNA. The experiment is described as follows: Inhibition of hIL-6 mRNA transcription in LPS-stimulated U937 macrophages. The experiment is classed as cell-based, Human. The note with it: 1 h pretreatment, LPS 3 h; for IC50: Homo sapiens, U-937, PMA-differentiated U937 cells, read-out: IL-6 activity. On the procedure:
Human leukemic monocyte lymphoma U937 cells (CRL-1593.2) were plated at a density of 3.2×10^4 cells per well in a 96-well plate in 100 μL RPMI-1640 containing 10% FBS and penicillin/streptomycin, and differentiated into macrophages for 3 days in 60 ng/mL PMA ([…]) at 37° C. in 5% CO2 prior to the addition of compound. The cells were pretreated for 1 h with increasing concentrations of test compound in 0.1% DMSO prior to stimulation with 1 ug/mL lipopolysaccharide from Escherichia coli. Triplicate wells were used for each concentration. The cells were incubated at 37° C., 5% CO2 for 3 h before the cells were harvested. At time of harvest, media was removed and cells were rinsed in 200 μL PBS. Cells were harvested using the mRNA Catcher PLUS kit according to manufacturer's instructions. The eluted mRNA was then used in a one-step quantitative real-time PCR reaction using components of the RNA UltraSense™ One-Step Kit (Life Technologies) together with Applied Biosystems TaqMan® primer-probes for hIL-6 and Cyclophilin. Real-time PCR plates were run on a ViiA™7 real time PCR machine (Applied Biosystems), data was analyzed, normalizing the Ct values for hlL-6 to an internal control, prior to determining the fold expression of each sample, relative to the control.

For experiment [2], the system named is c-myc in Human AML MV4-11 cells. The experiment is described as follows: Inhibition of cMYC expression (mRNA, real-time PCR) in MV4-11 cells. The experiment is classed as cell-based. The note with it: 3 h treatment, cMYC mRNA by real-time PCR. The procedure, abridged:
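MV4-11 cells in IMDM with 10% FBS were treated with increasing compound concentrations (DMSO 0.1%) for 3 h at 37 °C, in triplicate. Isolated mRNA was quantified by one-step TaqMan RT-qPCR, cMYC Ct normalized to cyclophilin, and fold expression given relative to DMSO control.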
(Quantitative PCR measures a nucleic acid by following its amplification.)

The structures appear in SMILES notation.

`CC(=O)Nc1ccccc1-c1cc(-c2c(C)noc2C)cc2[nH]c(C)nc12` [Example Compound 64, N-(2-(6-(3,5-dimethyl-isoxazol-4-yl)-2-methyl-1H-benzo[d]imidazol-4-yl)phenyl) acetamide]: the IC50 is not above 300 nM in experiment [1], 300 to 3000 nM with Human AML MV-4-11 cells, not above 300 nM in the experiment on hIL-6 mRNA and 300 to 3000 nM in experiment [2].
Consider `CNC(=O)c1onc(C)c1-c1cc(-c2c(C)noc2C)cc2[nH]c(C)nc12` [Example Compound 67, 4-(5-(3,5-dimethyl-isoxazol-4-yl)-2-methyl-1H-benzo[d]imidazol-7-yl)-N,3-dimethyl isoxazole-5-carboxamide], for which the IC50 was not above 300 nM in experiment [1], 3000 to 30000 nM in the experiment on Human AML MV-4-11 cells and 300 to 3000 nM in experiment [2]. Moreover, in the experiment on hIL-6 mRNA (PMA-differentiated U937 cells), the IL-6 activity result is “Not active”.
For `Cc1nc2c(-c3ccccc3S(C)(=O)=O)cc(-c3c(C)noc3C)cc2[nH]1` [Example Compound 69, 3,5-dimethyl-4-(2-methyl-4-(2-(methyl-sulfonyl)phenyl)-1H-benzo[d]imidazol-6-yl)isoxazole], the IC50 in experiment [1] is not above 300 nM; with Human AML MV-4-11 cells, 300 to 3000 nM; with hIL-6 mRNA, 300 to 3000 nM; in experiment [2] it was 300 to 3000 nM.
With `COc1ccncc1-c1cc(-c2c(C)noc2C)cc2[nH]c(C)nc12` [Example Compound 72, 4-(4-(4-methoxy-pyridin-3-yl)-2-methyl-1H-benzo[d]imidazol-6-yl)-3,5-dimethyl isoxazole], the IC50 in experiment [1] was not above 300 nM; with Human AML MV-4-11 cells, 300 to 3000 nM; in the experiment on hIL-6 mRNA, 300 to 3000 nM; in experiment [2], 300 to 3000 nM.
As to `Cc1nc2c(-c3cc(C(N)=O)ccc3C)cc(-c3c(C)noc3C)cc2[nH]1` [Example Compound 74, 3-(6-(3,5-dimethyl-isoxazol-4-yl)-2-methyl-1H-benzo[d]imidazol-4-yl)-4-methyl benzamide], the IC50 is not above 300 nM in experiment [1], 300 to 3000 nM with Human AML MV-4-11 cells, 300 to 3000 nM in the experiment on hIL-6 mRNA and 300 to 3000 nM in experiment [2].
As for `Cc1noc(C)c1-c1cc(-c2c(C)noc2C)c2[nH]c(CC(F)(F)F)nc2c1` [Example Compound 76, 4,4′-(2-(2,2,2-trifluoro-ethyl)-1H-benzo[d]imidazole-5,7-diyl)bis(3,5-dimethylisoxazole)], the IC50 in experiment [1] was not above 300 nM; in the experiment with Human AML MV-4-11 cells, 300 to 3000 nM; with hIL-6 mRNA it was 300 to 3000 nM; in experiment [2] it was 300 to 3000 nM.
Consider `Cc1nc2c(-c3ccccc3OC(F)(F)F)cc(-c3c(C)noc3C)cc2[nH]1` [Example Compound 77, 3,5-dimethyl-4-(2-methyl-4-(2-(trifluoro-methoxy)phenyl)-1H-benzo[d]imidazol-6-yl)isoxazole], for which the IC50 is not above 300 nM in experiment [1], 300 to 3000 nM in the experiment with Human AML MV-4-11 cells, 300 to 3000 nM in the experiment with hIL-6 mRNA and not above 300 nM in experiment [2].
Take `Cc1nc2c(-c3cccnc3)cc(-c3c(C)noc3C)cc2[nH]1` [Example Compound 79, 3,5-dimethyl-4-(2-methyl-4-(pyridin-3-yl)-1H-benzo[d]imidazol-6-yl)isoxazole]: the IC50 is not above 300 nM in experiment [1], 300 to 3000 nM in the experiment with Human AML MV-4-11 cells, 300 to 3000 nM in the experiment on hIL-6 mRNA and not above 300 nM in experiment [2].
With `Cc1nc2c(-c3cc(F)ccc3C(F)(F)F)cc(-c3c(C)noc3C)cc2[nH]1` [Example Compound 80, 4-(4-(5-fluoro-2-(trifluoro-methyl)phenyl)-2-methyl-1H-benzo[d]imidazol-6-yl)-3,5-dimethyl isoxazole], the IC50 was not above 300 nM in experiment [1], 300 to 3000 nM in the experiment on Human AML MV-4-11 cells, 300 to 3000 nM in the experiment on hIL-6 mRNA and not above 300 nM in experiment [2].
Consider `Cc1nc2c(-c3ncccc3C)cc(-c3c(C)noc3C)cc2[nH]1` [Example Compound 84, 3,5-dimethyl-4-(2-methyl-4-(3-methyl-pyridin-2-yl)-1H-benzo[d]imidazol-6 yl)isoxazole], for which the IC50 was in the range of 300 to 3000 nM in experiment [1], 3000 to 30000 nM in the experiment on Human AML MV-4-11 cells, 300 to 3000 nM in the experiment on hIL-6 mRNA and 300 to 3000 nM in experiment [2].
For the molecule `Cc1nc2c(-c3cnccn3)cc(-c3c(C)noc3C)cc2[nH]1` [Example Compound 85, 3,5-dimethyl-4-(2-methyl-4-(pyrazin-2-yl)-1H-benzo[d]imidazol-6-yl)isoxazole], the IC50 is not above 300 nM in experiment [1], 3000 to 30000 nM in the experiment on Human AML MV-4-11 cells, 300 to 3000 nM in the experiment with hIL-6 mRNA and 3000 to 30000 nM in experiment [2].
Consider `Cc1noc(C)c1-c1cc(-c2c(C)noc2C)c2cn[nH]c2c1` [Example Compound 87, 4,4′-(1H-indazole-4,6-diyl)bis(3,5-dimethylisoxazole)], for which the IC50 was not above 300 nM in experiment [1], 300 to 3000 nM in the experiment with Human AML MV-4-11 cells, 300 to 3000 nM in the experiment with hIL-6 mRNA and 300 to 3000 nM in experiment [2].
`Cc1nc2c(-c3ccccc3)cc(-c3c(C)noc3C)cc2[nH]1` [Example Compound 88, 3,5-dimethyl-4-(2-methyl-4-phenyl-1H-benzo[d]imidazol 6-yl)isoxazole]: the IC50 in experiment [1] is not above 300 nM; in the experiment on Human AML MV-4-11 cells, 300 to 3000 nM; with hIL-6 mRNA, 300 to 3000 nM; in experiment [2], 300 to 3000 nM.
Regarding `Cc1nc2c(-c3ccccc3C)cc(-c3c(C)noc3C)cc2[nH]1` [Example Compound 89, 3,5-dimethyl-4-(2-methyl-4-(o-tolyl)-1H-benzo[d]imidazol-6-yl)isoxazole], the IC50 in experiment [1] is not above 300 nM; in the experiment with Human AML MV-4-11 cells it was 300 to 3000 nM; with hIL-6 mRNA, 300 to 3000 nM; in experiment [2] it was not above 300 nM.
With `Cc1nc2c(-c3ccccc3F)cc(-c3c(C)noc3C)cc2[nH]1` [Example Compound 91, 4-(4-(2-fluoro-phenyl)-2-methyl-1H-benzo[d]imidazol-6-yl)-3,5-dimethyl isoxazole], the IC50 is not above 300 nM in experiment [1], 300 to 3000 nM in the experiment with Human AML MV-4-11 cells, not above 300 nM in the experiment on hIL-6 mRNA and not above 300 nM in experiment [2].
As for `Cc1noc(C)c1-c1cc(-c2c(C)noc2C)c2c(c1)ncn2C` [Example Compound 93, 4,4′-(1-methyl-1H-benzo[d]imidazole-5,7-diyl)bis(3,5-dimethylisoxazole)], the IC50 is not above 300 nM in experiment [1], 300 to 3000 nM in the experiment with Human AML MV-4-11 cells, not above 300 nM in the experiment on hIL-6 mRNA and not above 300 nM in experiment [2].
With `Cc1nc2c(-c3cc(F)ccc3C#N)cc(-c3c(C)noc3C)cc2[nH]1` [Example Compound 94, 2-(6-(3,5-dimethyl-isoxazol-4-yl)-2-methyl-1H-benzo[d]imidazol-4-yl)-4-fluoro-benzonitrile], the IC50 was not above 300 nM in experiment [1], 300 to 3000 nM in the experiment on Human AML MV-4-11 cells, 300 to 3000 nM in the experiment with hIL-6 mRNA and 300 to 3000 nM in experiment [2].
On to `Cc1nc2c(-c3c(C)ncnc3C)cc(-c3c(C)noc3C)cc2[nH]1` [Example Compound 98, 4-(4-(4,6-dimethyl-pyrimidin-5-yl)-2-methyl-1H-benzo[d]imidazol-6-yl)-3,5-dimethyl isoxazole], for which the IC50 in experiment [1] is not above 300 nM; in the experiment with Human AML MV-4-11 cells, 300 to 3000 nM; in the experiment on hIL-6 mRNA it was 300 to 3000 nM; in experiment [2], 300 to 3000 nM.
Regarding `Cc1nc2c(-c3c(C)nc(N)nc3C)cc(-c3c(C)noc3C)cc2[nH]1` [Example Compound 99, 5-(6-(3,5-dimethyl-isoxazol-4-yl)-2-methyl-1H-benzo[d]imidazol-4-yl)-4,6-dimethyl pyrimidin-2-amine], the IC50 (in experiment [1]; with Human AML MV-4-11 cells; with hIL-6 mRNA; in experiment [2]) was not above 300 nM in each case.

The values are drawn from patent publication US9999616B2 (ZENITH EPIGENETICS LTD., priority 2013, dated 2018).
